Measured values published in patent US5567692A, “9-[(substituted glycyl) amido)]-6-demethyl-6-deoxytetracyclines” (priority 1995, dated 1996).
Where a name gives a salt, the structure may show the parent alone. Read-outs that look alike come from different tables or passages of the source.

Tests used:
E. coli UBMS 88-1 Tet B = experiment: microbe, parasite or virus in culture; assay type: cell-based; conditions: Escherichia coli, UBMS881TETB, 18 h
E. coli J3272 Tet sens = experiment: MIC, agar dilution; assay type: cell-based; conditions: Escherichia coli, J3272TETSENS, 18 h
E. coli PRP1 Tet A = experiment: microbe, parasite or virus in culture; assay type: cell-based; conditions: Escherichia coli, PRP1TETA, 18 h
[1] = test system: E. coli MC 4100 TNIOC Tet B; experiment: microbe, parasite or virus in culture; assay type: cell-based; conditions: Escherichia coli, 18 h
E. coli J3272 Tet C = experiment: microbe, parasite or virus in culture; assay type: cell-based; conditions: Escherichia coli, J3272TETC, 18 h
E. coli UBMS 89-1 Tet M = experiment: microbe, parasite or virus in culture; assay type: cell-based; conditions: Escherichia coli, UBMS891TETM, 18 h
[2] = test system: E. coli UBMS 89-2 Tet sens.; experiment: MIC, agar dilution; assay type: cell-based; conditions: Escherichia coli, 18 h
E. coli J2175 = experiment: MIC, agar dilution; assay type: cell-based; conditions: Escherichia coli, 18 h, read-out: MIC
E. coli BAJ9003 IMP MUT = experiment: microbe, parasite or virus in culture; assay type: cell-based; conditions: Escherichia coli, BAJ9003IMPMUT, 18 h
E. coli UBMS 90-4 Tet M = experiment: microbe, parasite or virus in culture; assay type: cell-based; conditions: Escherichia coli, UBMS904TETM, 18 h
E. coli UBMS 90-5 = experiment: microbe, parasite or virus in culture; assay type: cell-based; conditions: Escherichia coli, UBMS905, 18 h, E. coli UBMS 90-5; read-out: MIC
E. coli #311 (MP) = experiment: MIC, agar dilution; assay type: cell-based; conditions: Escherichia coli, 18 h
E. coli ATCC 25922 = experiment: MIC, agar dilution; assay type: cell-based; conditions: Escherichia coli, ATCC25922, 18 h
E. coli J3272 Tet D = experiment: microbe, parasite or virus in culture; assay type: cell-based; conditions: Escherichia coli, J3272TETD, 18 h
S. marcescens FPOR 8733 = experiment: MIC, agar dilution; assay type: cell-based; conditions: Serratia marcescens, FPOR8733, 18 h
[3] = test system: X. maltophilia NEMC 87210; experiment: MIC, agar dilution; assay type: cell-based; conditions: Stenotrophomonas maltophilia, NEMC87210, 18 h
[4] = test system: Ps. aeruginosa ATCC 27853; experiment: MIC, agar dilution; assay type: cell-based; conditions: Pseudomonas aeruginosa, ATCC27853, 18 h, Ps. aeruginosa ATCC 27853; read-out: MIC
S. aureus NEMC 8769 = experiment: MIC, agar dilution; assay type: cell-based; conditions: Staphylococcus aureus, NEMC8769, 18 h
S. aureus UBMS 88-4 = experiment: MIC, agar dilution; assay type: cell-based; conditions: Staphylococcus aureus, UBMS884, 18 h, S. aureus UBMS 88-4
[5] = test system: S. aureus UBMS 88-5 Tet M; experiment: microbe, parasite or virus in culture; assay type: cell-based; conditions: Staphylococcus aureus, UBMS885TETM, 18 h
[6] = test system: S. aureus UBMS 88-7 Tet K; experiment: microbe, parasite or virus in culture; assay type: cell-based; conditions: Staphylococcus aureus, UBMS887TETK, 18 h
[7] = test system: S. aureus UBMS 90-1 Tet M; experiment: microbe, parasite or virus in culture; assay type: cell-based; conditions: Staphylococcus aureus, UBMS901TETM, 18 h
S. aureus UBMS 90-3 = experiment: MIC, agar dilution; assay type: cell-based; conditions: Staphylococcus aureus, UBMS903, 18 h
[8] = test system: S. aureus UBMS 90-2 Tet M; experiment: microbe, parasite or virus in culture; assay type: cell-based; conditions: Staphylococcus aureus, UBMS902TETM, 18 h
S. aureus IVES 2943 = experiment: MIC, agar dilution; assay type: cell-based; conditions: Staphylococcus aureus, IVES2943, 18 h
S. aureus ROSE (MP) = experiment: MIC, agar dilution; assay type: cell-based; conditions: Staphylococcus aureus, 18 h
S. aureus SMITH (MP) = experiment: MIC, agar dilution; assay type: cell-based; conditions: Staphylococcus aureus, 18 h
S. aureus IVES 1983 = experiment: MIC, agar dilution; assay type: cell-based; conditions: Staphylococcus aureus, IVES1983, 18 h
S. aureus ATCC 29213 = experiment: MIC, agar dilution; assay type: cell-based; conditions: Staphylococcus aureus, ATCC29213, 18 h
[9] = test system: S. hemolyticus AVHAH 88-3; experiment: MIC, agar dilution; assay type: cell-based; conditions: Streptococcus pyogenes, AVHAH883, 18 h
Enterococcus 12201 = experiment: MIC, agar dilution; assay type: cell-based; conditions: Enterococcus, 12201, 18 h
E. faecalis ATCC 29212 = experiment: MIC, agar dilution; assay type: cell-based; conditions: Enterococcus faecalis, ATCC29212, 18 h
[10] = test system: Staphylococcus aureus strain Smith (tetracycline sensitive); experiment: Acute lethal infection in mice, S. aureus Smith; assay type: in vivo; conditions: for ED50: Staphylococcus aureus, 168 h, mice, S. aureus Smith (Sens), 7 day survival, read-out: ED50
[11] = S. aureus IVES 2943, read-out: MIC

| SMILES | MIC (E. coli UBMS 88-1 Tet B) [µg/mL] | MIC (E. coli J3272 Tet sens) [µg/mL] | MIC (E. coli PRP1 Tet A) [µg/mL] | MIC [1] [µg/mL] | MIC (E. coli J3272 Tet C) [µg/mL] | MIC (E. coli UBMS 89-1 Tet M) [µg/mL] | MIC [2] [µg/mL] | MIC (E. coli J2175) [µg/mL] | MIC (E. coli BAJ9003 IMP MUT) [µg/mL] | MIC (E. coli UBMS 90-4 Tet M) [µg/mL] | MIC (E. coli UBMS 90-5) [µg/mL] | MIC (E. coli #311 (MP)) [µg/mL] | MIC (E. coli ATCC 25922) [µg/mL] | MIC (E. coli J3272 Tet D) [µg/mL] | MIC (S. marcescens FPOR 8733) [µg/mL] | MIC [4] [µg/mL] | MIC [6] [µg/mL] | MIC [7] [µg/mL] | MIC [8] [µg/mL] | MIC (S. aureus SMITH (MP)) [µg/mL] | further results |
| --- | --- | --- | --- | --- | --- | --- | --- | --- | --- | --- | --- | --- | --- | --- | --- | --- | --- | --- | --- | --- | --- |
| CCCCNCC(=O)Nc1ccc2c(c1O)C(=O)C1=C(O)[C@]3(O)C(=O)C(C(N)=O)=C(O)[C@@H](N(C)C)C3CC1C2 (stereo partly drawn) [H, [4S-(4alpha,12aalpha)]-9-[[(Butylamino)acetyl]amino]-4-(dimethylamino)-1,4,4a,5,5a,6,11,12a-octahydro-3,10,12,12a-tetrahydroxy-1,11-dioxo-2-naphthacenecarboxamide dihydrochloride] | 0.25 | 0.12 | 0.25 | 0.25 | 0.12 | 0.12 | 0.12 | 0.25 | 0.06 | 0.12 | 0.12 | 0.12 | 0.12 | 0.06 | 2 | 8 | 1 | 0.12 | 0.12 | 0.12 | MIC [3]: 1 µg/mL; MIC (S. aureus NEMC 8769): 0.03 µg/mL; MIC (S. aureus UBMS 88-4): 0.06 µg/mL; MIC ([5]; S. aureus UBMS 88-5 Tet M): 0.06 µg/mL; MIC (S. aureus UBMS 90-3): 0.03 µg/mL; MIC (S. aureus IVES 2943; [11]): 1 µg/mL; MIC (S. aureus ROSE (MP); read-out: MIC): 4 µg/mL; MIC (S. aureus IVES 1983): 2 µg/mL; MIC (S. aureus ATCC 29213): 0.06 µg/mL; MIC [9]: 0.5 µg/mL; MIC (Enterococcus 12201): 0.12 µg/mL; MIC (E. faecalis ATCC 29212; E. faecalis ATCC 29212, read-out: MIC): 0.12 µg/mL; ED50 ([10]; iv, Intraveneous): 0.5 to 1 mg/kg; ED50 ([10]; po, Oral): > 16 mg/kg; in vivo activity (in words) ([10]; tested intravenously against the minocycline sensitive organism S. aureus Smith): very good in vivo activity |
| CN(C)[C@@H]1C(O)=C(C(N)=O)C(=O)[C@@]2(O)C(O)=C3C(=O)c4c(ccc(NC(=O)CBr)c4O)CC3CC12 (stereo partly drawn) [R, [4S-(4alpha,12aalpha)]-9-((Bromoacetyl)amino]-4-(dimethylamino)-1,4,4a,5,5a,6,11,12a-octahydro-3,10,12,12a-tetrahydroxy-1,11-dioxo-2-naphthacenecarboxamide monohydrochloride] | > 32 | 32 | > 32 | > 32 | > 32 | 8 | 32 | 32 | 1 | 32 | 32 | 16 | 16 | > 32 | > 32 | > 32 | 8 | 1 | 2 | 1 | MIC [3]: 16 µg/mL; MIC (S. aureus NEMC 8769; read-out: MIC): 0.25 µg/mL; MIC (S. aureus UBMS 88-4; read-out: MIC): 0.5 µg/mL; MIC [5]: 2 µg/mL; MIC (S. aureus UBMS 90-3): 1 µg/mL; MIC (S. aureus IVES 2943): 16 µg/mL; MIC (S. aureus ROSE (MP)): 16 µg/mL; MIC (S. aureus IVES 1983): 16 µg/mL; MIC (S. aureus ATCC 29213; S. aureus ATCC 29213): 1 µg/mL; MIC [9]: 8 µg/mL; MIC (Enterococcus 12201): 4 µg/mL; MIC (E. faecalis ATCC 29212): 2 µg/mL |
| CC(Br)C(=O)Nc1ccc2c(c1O)C(=O)C1=C(O)[C@]3(O)C(=O)C(C(N)=O)=C(O)[C@@H](N(C)C)C3CC1C2 (stereo partly drawn) [S, [4S-(4alpha,12aalpha)]-9-[(2-Bromo-1-oxopropyl)amino]-4-(dimethylamino)-1,4,4a,5,5a,6,11,12a-octahydro-3,10,12,12a-tetrahydroxy-1,11-dioxo-2-naphthacenecarboxamide dihydrochloride] | > 32 | 4 | > 32 | > 32 | > 32 | > 32 | 16 | 16 | 1 | > 32 | 8 | 8 | 8 | > 32 | > 32 | > 32 | 16 | 32 | 16 | 1 | MIC ([3]; X. maltophilia NEMC 87210, read-out: MIC): 16 µg/mL; MIC (S. aureus NEMC 8769; read-out: MIC): 0.25 µg/mL; MIC (S. aureus UBMS 88-4; read-out: MIC): 2 µg/mL; MIC [5]: 32 µg/mL; MIC (S. aureus UBMS 90-3; S. aureus UBMS 90-3, read-out: MIC): 2 µg/mL; MIC (S. aureus IVES 2943; [11]): 32 µg/mL; MIC (S. aureus ROSE (MP)): > 32 µg/mL; MIC (S. aureus IVES 1983; S. aureus IVES 1983, read-out: MIC): 32 µg/mL; MIC (S. aureus ATCC 29213; S. aureus ATCC 29213, read-out: MIC): 2 µg/mL; MIC [9]: 8 µg/mL; MIC (Enterococcus 12201): 32 µg/mL; MIC (E. faecalis ATCC 29212): 16 µg/mL |
